Here are results for eleven compounds from US12173018B2, “Penicillin-binding protein inhibitors” (priority 2018, dated 2024).

Structures are written as SMILES. Converted amounts (≈) assume the structure as drawn. Read-outs that look alike come from different tables or passages of the source.

Experiment [1] concerns engineered strain of Escherichia coli harboring CTX-M15. The experiment can be described thus: microbe, parasite or virus in culture. It counts as cell-based. The conditions noted are these: Escherichia coli, read-out: Microbiological Activity (MIC in mg/L), E. coli DH5α/pLBII-CTX-M15, engineered strain producing CTX-M15. How it is done:
(§1) Briefly, cryo-preserved bacterial cultures of challenge strains are streaked for isolation on appropriate agar medium, in this case Mueller Hinton II agar. Following incubation to allow growth of the colonies, plates are sealed with parafilm and stored refrigerated for up to two weeks. For preparation of assay inoculum and to ensure low variability, at least 5 colonies are picked from the agar plates with an inoculating loop and aseptically transferred to a culture tube containing 3 mL of Mueller-Hinton Broth (supplemented with divalent cations to required levels based on Manufacturers' certification). The broth culture is grown for 3-5 hours at 37° C. with shaking at 200 rpm. Meanwhile, 2-fold serial dilutions of test compounds are conducted in a 96 well plate with a final volume of 75 μL per well at 2-fold the final desired concentration. After the dilution plates are set up the growing cultures are then diluted in a cuvette containing MH II broth and the optical density is measured at 600 nm. The Inoculum is diluted such that 75 μL of this culture in Mueller-Hinton Broth results in a starting bacterial concentration of 5×10^5 CFU/mL when added to the dilution plates. The plates are incubated for 16-20 hours at 37° C. The MIC values are read visually as the lowest concentration well with no bacterial growth.
To determine if test compounds were affected by CTX-M15, the most abundant extended spectrum […] in clinical settings worldwide, the inhibition of the growth of an engineered strain of Escherichia coli harboring CTX-M15 was tested. This strain was constructed by cloning the gene encoding CTX-M15 into the NdeI and BamHI restriction endonuclease sites of plasmid pLBII, placing the gene(s) under the control of the Lac promoter. The constructed expression plasmid for CTX-M15 was used to transform competent E. coli DH5α cells to make the engineered strain, including an empty pLBII vector control strain. The classic cell based broth microdilution MIC assay was employed as described above with the addition of control antibiotics, known to be degraded by β-lactamases (Ceftazidime, piperacillin and piperacillin+tazobactam).

Another experiment concerns the target E. coli PBP3 (Escherichia coli (strain K12), UniProt P0AD68). Nature of the experiment: E. coli PBP3 Bocillin-FL fluorescence polarization competition binding assay. The essentials: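 Purified PBP (1.5 μM final) was combined with test compound (0–1000 μM) and Bocillin-FL (fluorescent penicillin V, 0.1 μM final) in 50 mM Hepes pH 8.0, 300 mM NaCl, 5% glycerol.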

In another experiment the test system is E. coli ATCC 25922. The experiment can be described thus: Broth microdilution MIC, E. coli ATCC 25922. Format: cell-based. Conditions: Escherichia coli. How it is done: (§2) To determine the ability of test compounds to potentiate the inhibition of the growth of bacterial strains, classic cell based broth microdilution minimum inhibitory concentration (MIC) assays were employed. MIC assays are performed according to CLSI methods except where otherwise noted (CLSI, 2011 and CLSI, 2009). The reference type strain E. coli ATCC 25922, the wild-type parent strain E. coli AG100, the hyper-permeable E. coli 901C and E. coli D22 and the E. coli AG100A strain lacking the acrAB efflux pump encoding genes were used to determine the ability of the PBP inhibitors to penetrate the outer membrane of gram-negative bacteria and inhibit bacterial growth. […] The P. aeruginosa PAO1, P. aeruginosa ATCC 27853 and A. baumannii ATCC 19606, along with the hyper-permeable P. aeruginosa ATCC 35151 and an engineered efflux pump-compromised strain of P. aeruginosa (ΔmexAB-oprM) were used to determine the ability of PBP inhibitors to penetrate the outer membrane of P. aeruginosa and A. baumannii and assess antibacterial activity against these important gram-negative organisms.
as §1
(In broth dilution the organism is exposed to a series of concentrations in liquid medium.)

The next experiment relates to E. coli AG100. The experiment can be described thus: Broth microdilution MIC, E. coli AG100 (wild-type parent). It counts as cell-based. Conditions: Escherichia coli; wild-type parent E. coli AG100, broth microdilution; read-out: MIC E. coli AG100. Here is the method:
To determine the ability of test compounds to potentiate the inhibition of the growth of bacterial strains, classic cell based broth microdilution minimum inhibitory concentration (MIC) assays were employed.
as §1

Another experiment deals with E. coli 901C. Nature of the experiment: microbe, parasite or virus in culture. It counts as cell-based. The conditions noted are these: Escherichia coli; hyper-permeable E. coli 901C, broth microdilution; read-out: MIC E. coli 901C. How it is done:
as §2, §1

The subject of another experiment is E. coli AG100A. The experiment can be described thus: microbe, parasite or virus in culture. The conditions noted are these: Escherichia coli, read-out: MIC E. coli AG100A. It counts as cell-based. How it is done:
as §2, §1

For a further experiment, the system named is E. coli D22. The experiment can be described thus: microbe, parasite or virus in culture. The conditions noted are these: Escherichia coli; hyper-permeable E. coli D22, broth microdilution; read-out: MIC E. coli D22. Format: cell-based. Here is the method: as §2, §1
In the next experiment the test system is K. pneumoniae SI-117. Nature of the experiment: microbe, parasite or virus in culture. It counts as cell-based. The conditions noted are these: Klebsiella pneumoniae, SI117, read-out: MIC K. pneumoniae SI-117. Here is the method: as §2, §1
A further experiment has as its system K. pneumoniae UMM. Nature of the experiment: microbe, parasite or virus in culture. It counts as cell-based. The conditions noted are these: Klebsiella pneumoniae; K. pneumoniae UMM producing SHV-5 and KPC-2; read-out: MIC K. pneumoniae UMM. How it is done:
as §2, §1

A further experiment relates to K. pneumoniae 848844. The experiment can be described thus: microbe, parasite or virus in culture. The conditions noted are these: Klebsiella pneumoniae; K. pneumoniae 848844 producing SHV-11 and KPC-2; read-out: MIC K. pneumoniae 848844. It counts as cell-based, Klebsiella pneumoniae. Here is the method:
as §2, §1

Where [2] appears, read: fluorescence polarization competition binding with Bocillin-FL, read-out: E. coli K12 PBP3 Potency.
Where [3] appears, read: ATCC25922, E. coli ATCC 25922, broth microdilution, read-out: MIC E. coli 25922.

Sequence of E. coli PBP3 (P0AD68 whole entry): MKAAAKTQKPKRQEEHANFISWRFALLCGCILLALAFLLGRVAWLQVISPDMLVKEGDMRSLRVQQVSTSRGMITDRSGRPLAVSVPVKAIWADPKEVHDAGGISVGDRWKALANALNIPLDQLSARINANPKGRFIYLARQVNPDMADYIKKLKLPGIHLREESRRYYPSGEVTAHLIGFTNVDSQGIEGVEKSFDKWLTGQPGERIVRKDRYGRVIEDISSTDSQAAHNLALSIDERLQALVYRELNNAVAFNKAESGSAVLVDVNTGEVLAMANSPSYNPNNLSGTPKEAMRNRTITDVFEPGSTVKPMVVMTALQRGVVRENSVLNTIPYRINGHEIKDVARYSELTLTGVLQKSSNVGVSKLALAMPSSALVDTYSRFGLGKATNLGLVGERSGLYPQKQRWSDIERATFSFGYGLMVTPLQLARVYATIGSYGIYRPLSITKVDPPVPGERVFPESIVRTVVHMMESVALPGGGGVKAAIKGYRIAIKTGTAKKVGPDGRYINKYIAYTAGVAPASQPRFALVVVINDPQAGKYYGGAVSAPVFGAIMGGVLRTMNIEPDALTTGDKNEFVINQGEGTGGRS

`O=C(O)c1cccc2c1OB(O)[C@@H](NC(=O)C(NC(=O)c1c[nH]c3cccnc3c1=O)c1ccc(O)c(O)c1Cl)C2` (stereo partly drawn) [Example 59, (3R)-3-(2-(2-chloro-3,4-dihydroxyphenyl)-2-(4-oxo-1,4-dihydro-1,5-naphthyridine-3-carboxamido)acetamido)-2-hydroxy-3,4-dihydro-2H-benzo[e][1,2]oxaborinine-8-carboxylic acid]: in experiment [1], the MIC lay in the range of 128 to 256 mg/L (≈ 221 to 442 µM).
On to `CCN1CCN(C(=O)NC(C(=O)N[C@H]2Cc3cccc(C(=O)O)c3OB2O)c2ccc(N3CCOCC3)cc2)C(=O)C1=O` (stereo partly drawn) [Example 61, (3R)-3-(2-(4-ethyl-2,3-dioxopiperazine-1-carboxamido)-2-(4-morpholinophenyl)acetamido)-2-hydroxy-3,4-dihydro-2H-benzo[e][1,2]oxaborinine-8-carboxylic acid], for which, in [1], the MIC was in the range of 128 to 256 mg/L (≈ 216 to 431 µM).
The same measure, in the same setting: in the case of `CCN1CCN(C(=O)N[C@@H](C(=O)N[C@H]2Cc3cccc(C(=O)O)c3OB2O)C2(CO)CC2)C(=O)C1=O` [Example 62, (R)-3-((R)-2-(4-ethyl-2,3-dioxopiperazine-1-carboxamido)-2-(1-(hydroxymethyl)cyclopropyl)acetamido)-2-hydroxy-3,4-dihydro-2H-benzo[e][1,2]oxaborinine-8-carboxylic acid] it was 32 to 64 mg/L (≈ 63.7 to 127 µM).
The same measure, in the same setting: in the case of `CCN1CCN(C(=O)NC(C(=O)N[C@H]2Cc3cccc(C(=O)O)c3OB2O)C(CO)CNS(N)(=O)=O)C(=O)C1=O` (stereo partly drawn) [Example 79, (3R)-3-(2-(4-ethyl-2,3-dioxopiperazine-1-carboxamido)-4-hydroxy-3-((sulfamoylamino)methyl)butanamido)-2-hydroxy-3,4-dihydro-2H-benzo[e][1,2]oxaborinine-8-carboxylic acid] it was 32 to 64 mg/L (≈ 54.8 to 110 µM).
Same read-out and setting: to `CCN1CCN(C(=O)NC(C(=O)N[C@H]2Cc3cccc(C(=O)O)c3OB2O)C(CCl)CNS(N)(=O)=O)C(=O)C1=O` (stereo partly drawn) [Example 80, (3R)-3-(4-chloro-2-(4-ethyl-2,3-dioxopiperazine-1-carboxamido)-3-((sulfamoylamino)methyl)butanamido)-2-hydroxy-3,4-dihydro-2H-benzo[e][1,2]oxaborinine-8-carboxylic acid] belongs 128 to 256 mg/L (≈ 212 to 425 µM).
For `CCN1CCN(C(=O)NC(C(=O)N[C@H]2Cc3cc(F)c(F)c(C(=O)O)c3OB2O)c2ccc(O)c(O)c2Cl)C(=O)C1=O` (stereo partly drawn) [Example 180, (3R)-3-(2-(2-chloro-3,4-dihydroxyphenyl)-2-(4-ethyl-2,3-dioxopiperazine-1-carboxamido)acetamido)-6,7-difluoro-2-hydroxy-3,4-dihydro-2H-benzo[e][1,2]oxaborinine-8-carboxylic acid], the EC50 on E. coli PBP3 (setting [2]) is < 30 µM. For the same compound, the MIC fell in the range of 8 to 16 µg/mL in the experiment with E. coli ATCC 25922 (setting [3]); 2 to 4 µg/mL with E. coli AG100; 0.5 to 1 µg/mL with E. coli 901C; 0.5 to 1 µg/mL with E. coli AG100A; 2 to 4 µg/mL with E. coli D22; 2 to 4 µg/mL in the experiment with K. pneumoniae SI-117. For the same compound, the values for the MIC in the experiment on K. pneumoniae UMM and in the experiment on K. pneumoniae 848844 were 0.5 to 1 µg/mL and 2 to 4 µg/mL, respectively.
Take `CCOC(=O)c1cccc2c1OB(O)[C@@H](NC(=O)C(NC(=O)N1CCN(CC)C(=O)C1=O)c1ncc(O)cc1F)C2` (stereo partly drawn) [Example 195, Ethyl (3R)-3-(2-(4-ethyl-2,3-dioxopiperazine-1-carboxamido)-2-(3-fluoro-5-hydroxypyridin-2-yl)acetamido)-2-hydroxy-3,4-dihydro-2H-benzo[e][1,2]oxaborinine-8-carboxylate]: the EC50 on E. coli PBP3 (setting [2]) is > 500 µM. Moreover, the MIC with E. coli ATCC 25922 (setting [3]) is > 128 µg/mL; in the experiment with E. coli AG100, > 128 µg/mL; with E. coli 901C, 32 to 64 µg/mL; with E. coli AG100A it was > 128 µg/mL; in the experiment with E. coli D22 it was > 128 µg/mL; with K. pneumoniae SI-117 it was > 128 µg/mL. Moreover, the MIC in the experiment on K. pneumoniae UMM and in the experiment on K. pneumoniae 848844 was > 128 µg/mL in each case.
Consider `CCN1CCN(C(=O)NC(C(=O)N[C@H]2Cc3cccc(C(=O)O)c3OB2O)c2ccc(OCCCN)cc2F)C(=O)C1=O` (stereo partly drawn) [Example 209, (3R)-3-(2-(4-(3-aminopropoxy)-2-fluorophenyl)-2-(4-ethyl-2,3-dioxopiperazine-1-carboxamido)acetamido)-2-hydroxy-3,4-dihydro-2H-benzo[e][1,2]oxaborinine-8-carboxylic acid], for which, at E. coli PBP3, the EC50 fell in the range of 30 to 500 µM. Besides, the MIC was 8 to 16 µg/mL in the experiment with E. coli ATCC 25922 (setting [3]); 32 to 64 µg/mL with E. coli AG100; < 0.25 µg/mL with E. coli 901C; 0.5 to 1 µg/mL with E. coli AG100A; 2 to 4 µg/mL in the experiment on E. coli D22; > 128 µg/mL with K. pneumoniae SI-117. The values for the MIC with K. pneumoniae UMM and with K. pneumoniae 848844 were 32 to 64 µg/mL and > 128 µg/mL, respectively.
For `O=C(O)c1cccc2c1OB(O)[C@@H](NC(=O)C(NC(=O)c1c[nH]ccc1=O)c1ncc(O)cc1F)C2` (stereo partly drawn) [Example 219, (3R)-3-(2-(3-fluoro-5-hydroxypyridin-2-yl)-2-(4-oxo-1,4-dihydropyridine-3-carboxamido)acetamido)-2-hydroxy-3,4-dihydro-2H-benzo[e][1,2]oxaborinine-8-carboxylic acid], the EC50 at E. coli PBP3 is < 30 µM. Moreover, the MIC was > 128 µg/mL with E. coli ATCC 25922 (ATCC25922, read-out: MIC E. coli 25922); > 128 µg/mL in the experiment with E. coli AG100; 2 to 4 µg/mL in the experiment on E. coli 901C; 8 to 16 µg/mL in the experiment with E. coli AG100A; 8 to 16 µg/mL in the experiment with E. coli D22; 32 to 64 µg/mL in the experiment with K. pneumoniae SI-117. The MIC in the experiment on K. pneumoniae UMM was 32 to 64 µg/mL; in the experiment with K. pneumoniae 848844, > 128 µg/mL.
Regarding `NCCN1CCN(C(=O)N[C@H](C(=O)N[C@H]2Cc3cccc(C(=O)O)c3OB2O)c2ccc(O)c(O)c2Cl)C(=O)C1=O` [Example 221, (R)-3-((S)-2-(4-(2-aminoethyl)-2,3-dioxopiperazine-1-carboxamido)-2-(2-chloro-3,4-dihydroxyphenyl)acetamido)-2-hydroxy-3,4-dihydro-2H-benzo[e][1,2]oxaborinine-8-carboxylic acid], the EC50 at E. coli PBP3 was in the range of 30 to 500 µM. Also, the MIC in the experiment on E. coli ATCC 25922 (setting [3]) is > 128 µg/mL; in the experiment on E. coli AG100 it was 8 to 16 µg/mL; with E. coli 901C, 8 to 16 µg/mL; with E. coli AG100A it was 8 to 16 µg/mL; in the experiment with E. coli D22 it was 8 to 16 µg/mL; in the experiment on K. pneumoniae SI-117, 32 to 64 µg/mL. The results for the MIC in the experiment on K. pneumoniae UMM and with K. pneumoniae 848844 were 8 to 16 µg/mL and 32 to 64 µg/mL, respectively.
In turn, `NCCN1CCN(C(=O)N[C@H](C(=O)N[C@H]2Cc3cccc(C(=O)O)c3OB2O)c2ncc(O)cc2F)C(=O)C1=O` [Example 226, (R)-3-((S)-2-(4-(2-aminoethyl)-2,3-dioxopiperazine-1-carboxamido)-2-(3-fluoro-5-hydroxypyridin-2-yl)acetamido)-2-hydroxy-3,4-dihydro-2H-benzo[e][1,2]oxaborinine-8-carboxylic acid] showed an EC50 at E. coli PBP3 of 30 to 500 µM. Also, the MIC with E. coli ATCC 25922 (setting [3]) was > 128 µg/mL; in the experiment with E. coli AG100, 32 to 64 µg/mL; in the experiment with E. coli 901C, 2 to 4 µg/mL; in the experiment with E. coli AG100A it was 8 to 16 µg/mL; with E. coli D22, 8 to 16 µg/mL; in the experiment with K. pneumoniae SI-117, > 128 µg/mL. Also, the figures for the MIC in the experiment with K. pneumoniae UMM and in the experiment on K. pneumoniae 848844 were 32 to 64 µg/mL and > 128 µg/mL, respectively.
